Test results: patent US20080286216A1, “Surface Active Calcium Phosphates” (priority 2005, published 2008)

Assays:
[1] = system: people living in fluoridated areas; conditions: fluoride in drinking water; cited from earlier work
[2] = system: human dental plaque microcosm biofilms; assay: Tooth remineralisation: mineral deposition in dental plaque microcosm biofilms (Wong et al. method); type: cell-based; conditions: conclusion of Example 16
Experimental: This example investigated the tooth remineralisation properties of a complex according to the invention.
BMM: basal medium mucin models the nutrients present in saliva and was prepared following Wong et al, “Calcium phosphate deposition in human dental plaque microcosm biofilms induced by a ureolytic pH-rise procedure” Archives of Oral Biology 47 (2002) 779-790
The complex according to the invention was tested for its tooth remineralisation properties using the methodology described in Wong et al, “Calcium phosphate deposition in human dental plaque microcosm biofilms induced by a ureolytic pH-rise procedure” Archives of Oral Biology 47 (2002) 779-790.
Ca & P units: mmol/g protein, F units: μmol/g protein
Mineralisation regime: 14 days mineralisation; 3 doses of testing composition and 10% sucrose daily

Compound	aesthetically unacceptable changes to the appearance of teeth [1]	incidence of fluorosis [1] [%]	tooth remineralisation properties [2]
F [fluoride]	at least 12.5%	≤ 48	
Stearamidopropyl Dimethylamine Glycerophosphate [Example 14]			has tooth remineralisation properties
